# In ChEMBL document CHEMBL1250451, “Mechanistic insights into a Ca2+-dependent family of alpha-mannosidases in a human gut symbiont” (Nat Chem Biol, 2010):
# Key:
# Type in all cases: protein assay
# [1] = molecular target: T1, Alpha-1,2-mannosidase (BT_2199) (Bacteroides thetaiotaomicron) (UniProt Q8A5N9); experiment: Activity of Bacteroides thetaiotaomicron GH92 alpha-mannosidase 2199 assessed as recovery of enzyme activity at 1 mM in presence of 7 mM Ba(2+) ions and in presence of 5 mM EDTA in 100 mM pH 7 MOPS buffer relative to enzyme activity in presence of calcium
# T1 sequence (whole entry): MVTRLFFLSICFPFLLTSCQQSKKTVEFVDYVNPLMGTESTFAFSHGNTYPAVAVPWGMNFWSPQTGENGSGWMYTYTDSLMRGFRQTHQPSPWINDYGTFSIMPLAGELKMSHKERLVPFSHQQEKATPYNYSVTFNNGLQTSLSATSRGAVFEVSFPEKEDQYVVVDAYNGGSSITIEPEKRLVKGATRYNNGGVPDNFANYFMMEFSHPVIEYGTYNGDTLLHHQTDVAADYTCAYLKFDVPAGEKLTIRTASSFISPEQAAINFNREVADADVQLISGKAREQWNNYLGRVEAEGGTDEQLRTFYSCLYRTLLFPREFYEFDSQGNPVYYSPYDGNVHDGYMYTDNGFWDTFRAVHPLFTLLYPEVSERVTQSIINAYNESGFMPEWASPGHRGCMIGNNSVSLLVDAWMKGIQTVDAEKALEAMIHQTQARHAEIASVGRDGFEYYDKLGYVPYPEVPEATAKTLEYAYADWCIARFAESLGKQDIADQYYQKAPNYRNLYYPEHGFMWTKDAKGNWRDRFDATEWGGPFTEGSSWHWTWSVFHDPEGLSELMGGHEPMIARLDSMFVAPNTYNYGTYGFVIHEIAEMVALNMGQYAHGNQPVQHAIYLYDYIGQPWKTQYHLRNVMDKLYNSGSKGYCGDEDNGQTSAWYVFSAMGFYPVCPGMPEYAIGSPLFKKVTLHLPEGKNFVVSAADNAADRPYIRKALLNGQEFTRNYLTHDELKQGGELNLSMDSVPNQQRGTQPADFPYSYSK
# [2] = molecular target: T2, Alpha-1,2-mannosidase (BT_3990) (Bacteroides thetaiotaomicron) (UniProt Q8A0N1); experiment: Activity of Bacteroides thetaiotaomicron GH92 alpha-mannosidase 3990 assessed as recovery of enzyme activity at 1 mM in presence of 7 mM Ti(3+) ions and in presence of 5 mM EGTA in 100 mM pH 7 MOPS buffer relative to enzyme activity in presence of calcium
# T2 sequence (whole entry): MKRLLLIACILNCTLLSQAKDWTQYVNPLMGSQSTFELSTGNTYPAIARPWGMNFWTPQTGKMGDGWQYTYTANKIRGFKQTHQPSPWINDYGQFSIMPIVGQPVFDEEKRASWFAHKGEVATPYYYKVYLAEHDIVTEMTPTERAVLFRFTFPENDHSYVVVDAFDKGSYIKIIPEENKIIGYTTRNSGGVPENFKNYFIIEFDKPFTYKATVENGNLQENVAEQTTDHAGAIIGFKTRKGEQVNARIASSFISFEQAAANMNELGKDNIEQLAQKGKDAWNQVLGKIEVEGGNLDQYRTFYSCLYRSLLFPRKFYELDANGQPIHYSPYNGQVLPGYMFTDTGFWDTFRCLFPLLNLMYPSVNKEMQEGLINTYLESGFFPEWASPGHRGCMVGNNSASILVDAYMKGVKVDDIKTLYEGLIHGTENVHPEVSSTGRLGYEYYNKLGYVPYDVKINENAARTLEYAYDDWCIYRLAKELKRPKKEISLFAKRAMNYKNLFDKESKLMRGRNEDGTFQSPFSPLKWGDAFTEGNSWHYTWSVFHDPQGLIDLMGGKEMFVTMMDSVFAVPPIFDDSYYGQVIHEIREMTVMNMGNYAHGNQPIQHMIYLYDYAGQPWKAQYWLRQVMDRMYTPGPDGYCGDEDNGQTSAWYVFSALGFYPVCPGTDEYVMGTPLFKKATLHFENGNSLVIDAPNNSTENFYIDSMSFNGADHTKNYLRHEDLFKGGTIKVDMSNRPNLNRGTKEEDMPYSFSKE
# [3] = molecular target: T1, Alpha-1,2-mannosidase (BT_2199) (Bacteroides thetaiotaomicron); experiment: Activity of Bacteroides thetaiotaomicron GH92 alpha-mannosidase 2199 assessed as recovery of enzyme activity at 1 mM in presence of 7 mM Mn(2+) ions and in presence of 5 mM EDTA in 100 mM pH 7 MOPS buffer relative to enzyme activity in presence of calcium
# [4] = molecular target: T2, Alpha-1,2-mannosidase (BT_3990) (Bacteroides thetaiotaomicron); experiment: Activity of Bacteroides thetaiotaomicron GH92 alpha-mannosidase 3990 assessed as recovery of enzyme activity at 1 mM in presence of 7 mM Ca(2+) ions and in presence of 5 mM EDTA in 100 mM pH 7 MOPS buffer relative to enzyme activity in presence of calcium
# [5] = molecular target: T1, Alpha-1,2-mannosidase (BT_2199) (Bacteroides thetaiotaomicron); experiment: Activity of Bacteroides thetaiotaomicron GH92 alpha-mannosidase 2199 assessed as recovery of enzyme activity at 1 mM in presence of 7 mM Ca(2+) ions and in presence of 5 mM EGTA in 100 mM pH 7 MOPS buffer relative to enzyme activity in presence of calcium
# [6] = molecular target: T1, Alpha-1,2-mannosidase (BT_2199) (Bacteroides thetaiotaomicron); experiment: Activity of Bacteroides thetaiotaomicron GH92 alpha-mannosidase 2199 assessed as recovery of enzyme activity at 1 mM in presence of 7 mM Sc(3+) ions and in presence of 5 mM EGTA in 100 mM pH 7 MOPS buffer relative to enzyme activity in presence of calcium
# [7] = molecular target: T1, Alpha-1,2-mannosidase (BT_2199) (Bacteroides thetaiotaomicron); experiment: Activity of Bacteroides thetaiotaomicron GH92 alpha-mannosidase 2199 assessed as recovery of enzyme activity at 1 mM in absence of metal and in presence of 5 mM EDTA in 100 mM pH 7 MOPS buffer relative to enzyme activity in presence of calcium
# [8] = molecular target: T2, Alpha-1,2-mannosidase (BT_3990) (Bacteroides thetaiotaomicron); experiment: Activity of Bacteroides thetaiotaomicron GH92 alpha-mannosidase 3990 assessed as recovery of enzyme activity at 1 mM in presence of 7 mM V(3+) ions and in presence of 5 mM EGTA in 100 mM pH 7 MOPS buffer relative to enzyme activity in presence of calcium
# [9] = molecular target: T1, Alpha-1,2-mannosidase (BT_2199) (Bacteroides thetaiotaomicron); experiment: Activity of Bacteroides thetaiotaomicron GH92 alpha-mannosidase 2199 assessed as recovery of enzyme activity at 1 mM in presence of 7 mM Mg(2+) ions and in presence of 5 mM EGTA in 100 mM pH 7 MOPS buffer relative to enzyme activity in presence of calcium
# [10] = molecular target: T2, Alpha-1,2-mannosidase (BT_3990) (Bacteroides thetaiotaomicron); experiment: Activity of Bacteroides thetaiotaomicron GH92 alpha-mannosidase 3990 assessed as recovery of enzyme activity at 1 mM in presence of 7 mM Co(2+) ions and in presence of 5 mM EDTA in 100 mM pH 7 MOPS buffer relative to enzyme activity in presence of calcium
# [11] = molecular target: T1, Alpha-1,2-mannosidase (BT_2199) (Bacteroides thetaiotaomicron); experiment: Activity of Bacteroides thetaiotaomicron GH92 alpha-mannosidase 2199 assessed as recovery of enzyme activity at 1 mM in presence of 7 mM Be(2+) ions and in presence of 5 mM EDTA in 100 mM pH 7 MOPS buffer relative to enzyme activity in presence of calcium
# [12] = molecular target: T2, Alpha-1,2-mannosidase (BT_3990) (Bacteroides thetaiotaomicron); experiment: Activity of Bacteroides thetaiotaomicron GH92 alpha-mannosidase 3990 assessed as recovery of enzyme activity at 1 mM in presence of 7 mM Sc(3+) ions and in presence of 5 mM EDTA in 100 mM pH 7 MOPS buffer relative to enzyme activity in presence of calcium
compound,measurement,setting,value
O=[N+]([O-])c1ccc(O[C@H]2O[C@H](CO)[C@@H](O)[C@H](O)[C@@H]2O)cc1,Activity,[1],0%
same,Activity,[2],0%
same,Activity,[3],8%
same,Activity,[4],100%
same,Activity,[5],100%
same,Activity,[6],0%
same,Activity,[7],0%
same,Activity,[8],0%
same,Activity,[9],0%
same,Activity,[10],12%
same,Activity,[11],0%
same,Activity,[12],0%
